Measurements published in patent publication US6372457B1, “Process and materials for production of glucosamine” (Arkion Life Sciences LLC, priority 1997, dated 2002).

Molecular target: T1, glucosamine-6-phosphate synthase (Escherichia coli, UniProt P17169)
T1 construct: allowed mutagenesis of a 2247 base pair region that included the entire glmS gene; made in house; host or cells: E. coli W3110-derived (DE3) production strains with integrated T7-glmS cassette; crude extract
Type: biochemical
Conditions: spectrophotometric assay, FIG. 5
Procedure: In the spectrophotometric assay, 1 mL reactions containing 50 mM KH2PO4/K2HPO4, 10 nM fructose-6-phosphate, 6 mM L-glutamine, 10 mM KCl, 0.6 mM acetylpyridine adenine dinucleotide (APAD), and 50-60 Units of L-glutamic dehydrogenase (Sigma Type II from bovine liver) were run at room temperature. The activity was followed by monitoring the absorbance at 365 nm after the addition of extract and corrected for the small absorbance increase observed in the absence of extract. The activity was calculated using a molar extinction coefficient for APAD of 9100.
Using the spectrophotometric assay for glucosamine-6-phosphate synthase as described in Example 2, the effects of glucosamine-6-phosphate and glucosamine on glucosamine-6-phosphate synthase were measured. For determination of product inhibition, assays were run in the presence of various concentrations of added glucosamine-6-phosphate.
The strains were grown overnight in LB broth containing 100 μg/mL ampicillin and 1 mM IPTC. […]
Strains 2123-12, 2123-49, 2123-54, 2123-124, 2123-149, and 2123-151, described in the examples above, were grown overnight in LB broth at 37° C. then transferred to fresh LB broth. Cultures were grown to an absorbance at 600 nm of 0.8 to 0.9, then induced for GlcN6P synthase production by the addition of 1 mM IPTG. […]

T1 sequence (P17169 2-609): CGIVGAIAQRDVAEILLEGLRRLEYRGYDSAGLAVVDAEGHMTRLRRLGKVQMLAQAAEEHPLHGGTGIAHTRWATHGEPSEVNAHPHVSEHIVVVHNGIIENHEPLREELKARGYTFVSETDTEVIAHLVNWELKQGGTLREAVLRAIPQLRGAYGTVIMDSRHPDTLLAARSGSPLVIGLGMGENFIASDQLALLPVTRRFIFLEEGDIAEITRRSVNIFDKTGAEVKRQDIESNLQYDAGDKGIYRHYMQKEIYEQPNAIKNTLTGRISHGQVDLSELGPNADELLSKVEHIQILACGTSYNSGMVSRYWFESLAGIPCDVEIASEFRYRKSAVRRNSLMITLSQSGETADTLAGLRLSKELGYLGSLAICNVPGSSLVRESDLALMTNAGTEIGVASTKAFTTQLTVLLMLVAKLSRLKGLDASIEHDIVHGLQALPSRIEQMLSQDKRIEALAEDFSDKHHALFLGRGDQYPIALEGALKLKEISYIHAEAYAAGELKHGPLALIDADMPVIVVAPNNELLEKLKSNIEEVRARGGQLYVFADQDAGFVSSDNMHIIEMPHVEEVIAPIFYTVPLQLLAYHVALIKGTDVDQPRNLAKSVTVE

Structure (SMILES)	Inhibition of glucosamine-6-phosphate synthase by the added substance
N[C@H]1C(O)O[C@H](COP(=O)(O)O)[C@@H](O)[C@@H]1O (some centres unmarked) [glucosamine-6-phosphate]	significantly inhibited
N[C@H]1C(O)O[C@H](CO)[C@@H](O)[C@@H]1O (some centres unmarked) [glucosamine]	slightly inhibited
